# Patent publication US4496735A, “Certain pyridyloxy-or-thio-phenyl propenoic acid derivatives” (Maruko Seiyaku Co., Ltd., priority 1982, dated 1985)
# Where a name gives a salt, the structure may show the parent alone. Read-outs that look alike come from different tables or passages of the source.
# Legend:
# [1] = tested on: platelet aggregation (collagen), rabbit platelet-rich plasma; experiment: Inhibition of Platelet Aggregation induced by collagen; type: cell-based; conditions: for IC50: Oryctolagus cuniculus, Platelet, rabbit PRP, collagen 10 ug/ml, 37° C.; for inhibitory activity on platelet aggregation induced by collagen (in words): conclusion in words
# Method: (§1) Rabbit platelet-rich plasma was pre-incubated at 37° C. for 1 minute and, after adding the test compound, arachidonic acid or collagen was added thereto at a concentration of 100 ug/ml or 10 ug/ml, respectively. The aggregation of platelets was recorded using an aggregometer and shown in Table 2 in terms of IC50 value.
# [2] = tested on: platelet aggregation (arachidonic acid), rabbit platelet-rich plasma; experiment: Inhibition of Platelet Aggregation induced by arachidonic acid; type: cell-based; conditions: for IC50: Oryctolagus cuniculus, Platelet, rabbit PRP, arachidonic acid 100 ug/ml, 37° C.; for inhibitory activity on platelet aggregation induced by arachidonic acid (in words): conclusion in words
# Method: as §1
# [3] = tested on: thromboxane A2 synthesis (thromboxane A2 synthetase); experiment: Inhibition of Thromboxane A2 Synthesis (collagen-stimulated rabbit platelet-rich plasma, thromboxane B2 by radioimmunoassay); type: cell-based; conditions: Oryctolagus cuniculus, 5 min, read-out: IC50 on Thromboxane A2 Synthesis
# Method: Rabbit platelet-rich plasma (PRP, 6×10^8 platelets/ml) and the test compound was pre-incubated at 37° C. for 5 minutes and, after adding collagen to the mixture at a concentration of 13 ug/ml, the resulting mixture was incubated at 37° C. for 5 minutes. Then, the reaction was terminated by rendering the mixture […] with hydrochloric acid and the amount of thromboxane B2 produced was quantitatively determined by the radioimmunoassay.
# Acute Toxicity = type: in vivo; conditions: mouse, in vivo, ip; ddY male mice; i.p.; mortality one week after administration; Behrens-Karber method
# Method: (§2) The test compound was administered intraperitoneally to ddY male mice weighing 22 to 24 g and LD50 was determined by the Behrens-Karber method [Arch. exp. Path. Pharmak., 177, 379 (1935)] from the mortality one week after administration.
# [4] = tested on: Arachidonic Acid-Induced Sudden Death; experiment: Effect on Arachidonic Acid-Induced Sudden Death in Rabbit; type: in vivo, male rabbits; conditions: for % Protection / Ratio of Mortality/Total Number: 20 mg/kg i.p. 2 hours before 1.4 mg/kg sodium arachidonate (ear vein); for % Protection: 30 minutes; for Ratio of Mortality/Total Number: mortality at 30 minutes; for protection against the arachidonic acid-induced sudden death in rabbits (in words): conclusion in words
# Excerpt: The compounds of the present invention having the formula (I) and the pharmaceutically acceptable salts thereof thus obtained have a strong inhibitory activity on thromboxane A2 synthetase. A typical in vivo test method for evaluating compounds which may be useful as a so-called anti-thrombotic agent has been reported in literature and this method comprises determining the prevention of sudden death of rabbits caused by arachidonic acid, as reported in, for example, Agents and Actions, 7, 481 (1977); Pharmacology, 14, 522 (1976); Science, 183, 1085 (1974), etc.
# More specifically, sodium arachidonate is administered intravenously to rabbits at a dose of about 1.4 mg/kg to cause a sudden death within a few minutes due to platelet aggregation and lung embolus.
# According to the method of Silver et al [Science, 183, 1085 (1974)], 20 mg/kg of the test compound was administered intraperitoneally into male rabbits (8 or 10 rabbits per group), each weighing 2.2 to 2.8 kg, and 2 hours after the administration 1.4 mg/kg of sodium arachidonate was administered to the rabbit from an ear vein. The mortality of the rabbits was then calculated 30 minutes after the administration of sodium arachidonate.
# ddY male mice = experiment: Acute Toxicity; type: in vivo; conditions: i.p., mortality one week after administration, Behrens-Karber method, 10080 min
# Method: as §2
# [5] = rabbit PRP, 6×10^8 platelets/ml, collagen 13 ug/ml, 37° C., 5 minutes
SMILES,IC50 [1] [µM],IC50 [2] [µM],"IC50 [3, 5] [µM]",LD50 at 168 h (Acute Toxicity) [mg/kg],% Protection [4] [%],Ratio of Mortality/Total Number [4],protection against the arachidonic acid-induced sudden death in rabbits (in words) [4],inhibitory activity on platelet aggregation induced by collagen (in words) [1],inhibitory activity on platelet aggregation induced by arachidonic acid (in words) [2],IC50 [3] [µM],LD50 (ddY male mice) [mg/kg]
"CC(=Cc1ccc(Oc2cccnc2)cc1)C(N)=O.Cl [Compound G, 2-Methyl-3-[4-(3-pyridyloxy)phenyl]propenamide hydrochloride]",56,335,0.56,310,–,–,–,–,–,–,–
"CC(=Cc1ccc(Oc2cccnc2)cc1)C(=O)NC1CCCCC1.Cl [Compound E, N-Cyclohexyl-2-methyl-3-[4-(3-pyridyloxy)phenyl]propenamide hydrochloride]",47,31,5.9,210,75,2/8,strong protection,–,–,–,–
"Cl.O=C(O)c1ccc(OCCn2ccnc2)cc1 [Compound B, 4-(2-Imidazol-1-ylethoxy)benzoic acid hydrochloride, reference compound]",400,> 1000,–,–,–,–,–,very weak inhibitory activity,very weak inhibitory activity,5.7,–
"CCCCCCCCCn1ccnc1 [Compound A, Nonylimidazole, reference compound]",–,–,–,–,50,5/10,–,–,–,–,59
"CC(=Cc1ccc(Sc2ccncc2)cc1)C(=O)O [Compound F, 2-Methyl-3-[4-(4-pyridylthio)phenyl]propenoic acid hydrochloride]",22,–,0.31,–,–,–,–,–,–,–,–
"CC(=Cc1ccc(Cc2cccnc2)cc1)C(=O)O.Cl [Compound C, 2-Methyl-3-[4-(3-pyridylmethyl)phenyl]propenoic acid hydrochloride, reference compound]",420,> 1000,0.22,220,–,–,–,very weak inhibitory activity,very weak inhibitory activity,–,–
"CC(=Cc1ccc(Oc2cccnc2)cc1)C(=O)O.Cl [Compound D, 2-Methyl-3-[4-(3-pyridyloxy)phenyl]propenoic acid hydrochloride]",36,–,1,350,100,0/10,strong protection,–,–,–,–
